Patent US10421779B2, “Carbazole compound having anti-virus activity” (priority 2016, dated 2019)

What was measured:
Type in all cases: cell-based
[1] = test system: hepatitis C virus mutant Y93H of the NS5A region; assay: Efficacy on resistant mutant Y93H; conditions: read-out: EC50 Y93H
Source text: (§1) As a mutant resistant to hepatitis C virus, L31V and Y93H of the NS5A region, and double mutants thereof were applied.

[2] = test system: HCV genotype 3a (HCV replicon system); assay: HCV replicon system genotype 3a, firefly luciferase activity; conditions: Hepatitis C virus, 72 h; HCV genotype 3a replicon, Fluc, 3 days; read-out: Replicon EC50 3a type
Procedure: (§2) From human liver cells (Huh7.5.1 cell) infected by hepatitis C virus, the anti-virus effects by the compound of the present invention were measured. From HCV genotype 1 b (HCV replicon system), genotype 2a (HCV cell culture system, HCVcc), and genotype 3a, the EC50 values were measured.
In order to measure the EC50 value from genotype 3a, the value was measured through the luciferase activity. A HCV replicon system having firefly luciferase (Fluc) genes and genotype 3a non-structure genes was used. The HCV replicon system having the genes as described above was used to treat the experimental compound under various concentration conditions, and then 3 days later, the EC50 value was measured by comparing the luciferase activity with that of the control.

[3] = test system: HCV genotype 2a (HCV cell culture system, HCVcc); assay: HCVcc genotype 2a JFH1 (JFH 5a-Rluc) virus in Huh7.5.1 cells, luciferase assay; conditions: Hepatitis C virus, Huh-7.5.1, 72 h, HCV genotype 2a JFH 5a-Rluc, 3 days, read-out: Replicon EC50 2a type
Procedure: as §2
In order to measure the EC50 value from HCV genotype 2a, a luciferase assay was used. A JFH1 clone (JFH 5a-Rluc) virus constructed to have a Renilla luciferase enzyme (Rluc) gene in NS5A protein was infected with Huh7.5.1 cell being a host cell, and then the EC50 value was measured by taking cells grown for 3 days by treating the experimental compound under various concentration conditions, and analyzing the activity degree of the luciferase.

[4] = test system: hepatitis C virus mutant L31V of the NS5A region; assay: Efficacy on resistant mutant L31V; conditions: read-out: EC50 L31V
Source text: as §1

[5] = test system: HCV genotype 1 b (HCV replicon system); assay: HCV replicon system genotype 1b, Renilla luciferase activity; conditions: Hepatitis C virus, 72 h; HCV genotype 1b replicon, Rluc, 3 days; read-out: Replicon EC50 1b type
Procedure: as §2
In order to measure the EC50 value from HCV genotype 1 b, the degrees of HCV replication inhibitory activities of an experimental compound were measured. The EC50 value was measured by treating the experimental compound with the HCV replicon systems (genotype 1 b) having Renilla luciferase (Rluc) genes and genotype 1 b non-structure genes under various concentration conditions to compare the activity degree of the luciferase after 3 days elapsed time with that of the control.

Row | Compound | EC50 [1] [nM] | EC50 [2] [nM] | EC50 [3] [nM] | EC50 [4] [nM] | EC50 [5] [nM]
1 | CCCCCCOc1ccc(Cn2c3cc(NC(=O)[C@@H]4CCCN4C(=O)[C@H](NC(=O)OC)c4ccccc4)ccc3c3ccc(NC(=O)[C@@H]4CCCN4C(=O)[C@H](NC(=O)OC)c4ccccc4)cc32)cc1 [Example 31, dimethyl ((1R,1′R)-((2S,2′S)-(((9-(4-(hexyloxy)benzyl)-9H-carbonyl-2,7-diyl)bis(azanediyl))bis(carbonyl))bis(pyrrolidine-2,1-diyl))bis(2-oxo-1-phenylethane-2,1-diyl))dicarbamate] | 10 to 100 | ~0.01 | 1 to 10 | < 0.1 | ~0.01
2 | COC(=O)N[C@@H](C(=O)N1CCC[C@H]1C(=O)Nc1ccc2c3ccc(NC(=O)[C@@H]4CCCN4C(=O)[C@H](NC(=O)OC)c4ccccc4)cc3n(Cc3cccc(OC4CCCC4)c3)c2c1)c1ccccc1 [Example 39, dimethyl ((1R,1′R)-((2S,2′S)-(((9-(3-(cyclopentyloxy)benzyl)-9H-carbazole-2,7-diyl)bis(azanediyl))bis(carbonyl))bis(pyrrolidine-2,1-diyl))bis(2-oxo-1-phenylethane-2,1-diyl))dicarbamate] | 100 to 1000 | 0.00638 |  | 0.1 to 1 | 0.00113
3 | CCCCn1c2cc(NC(=O)[C@@H]3CCCN3C(=O)[C@H](NC(=O)OC)c3ccccc3)ccc2c2ccc(-c3c[nH]c([C@@H]4CCCN4C(=O)[C@H](NC(=O)OC)c4ccccc4)n3)cc21 [Example 51, methyl ((R)-2-((S)-2-((9-butyl-7-(2-((S)-1-((R)-2-((methoxycarbonyl)amino)-2-phenylacetyl)pyrrolidine-2-yl)-1H-imidazole-4-yl)-9H-carbazole-2-yl)carbamoyl)pyrrolidine-1-yl)-2-oxo-1-phenylethyl)carbamate] |  | 0.193 | 0.387 |  | 0.0145
4 | CCCCCCCCn1c2cc(NC(=O)[C@@H]3CCCN3C(=O)[C@H](NC(=O)OC)c3ccccc3)ccc2c2ccc(NC(=O)[C@@H]3CCCN3C(=O)[C@H](NC(=O)OC)c3ccccc3)cc21 [Example 26, dimethyl ((1R,1′R)-((2S,2′S)-(((9-octyl-9H-carbazole-2,7-diyl)bis(azanediyl))bis(carbonyl))bis(pyrrolidine-2,1-diyl))bis(2-oxo-1-phenylethane-2,1-diyl))dicarbamate] |  |  | 10 to 100 | 1 to 10 | 0.00792
5 | CCCCCCCC(c1ccccc1)n1c2cc(NC(=O)[C@@H]3CCCN3C(=O)[C@H](NC(=O)OC)c3ccccc3)ccc2c2ccc(NC(=O)[C@@H]3CCCN3C(=O)[C@H](NC(=O)OC)c3ccccc3)cc21 (stereo partly drawn) [Example 29, dimethyl ((1R,1′R)-((2S,2′S)-(((9-(1-phenyloctyl)-9H-carbazole-2,7-diyl)bis(azanediyl))bis(carbonyl))bis(pyrrolidine-2,1-diyl))bis(2-oxo-1-phenylethane-2,1-diyl))dicarbamate] |  | 10 to 100 | 1 to 10 |  | 0.01 to 0.1
6 | COC(=O)N[C@@H](C(=O)N1CCC[C@H]1C(=O)Nc1ccc2c3ccc(NC(=O)[C@@H]4CCCN4C(=O)[C@H](NC(=O)OC)c4ccccc4)cc3n(CCCCCCCCCCN3CCOCC3)c2c1)c1ccccc1 [Example 34, dimethyl ((1R,1′R)-((2S,2′S)-(((9-(10-morpholinodecyl)-9H-carbazole-2,7-diyl)bis(azanediyl))bis(carbonyl))bis(pyrrolidine-2,1-diyl))bis(2-oxo-1-phenylethane-2,1-diyl))carbamate] | 100 to 1000 | 0.01 to 0.1 | 1 to 10 | < 0.1 | 0.01 to 0.1
7 | CCCCCCCCCCCCn1c2cc(NC(=O)[C@@H]3CCCN3C(=O)[C@H](NC(=O)OC)c3ccccc3)ccc2c2ccc(NC(=O)[C@@H]3CCCN3C(=O)[C@H](NC(=O)OC)c3ccccc3)cc21 [Example 27, dimethyl ((1R,1′R)-((2S,2′S)-(((9-dodecyl-9H-carbazole-2,7-diyl)bis(azanediyl))bis(carbonyl))bis(pyrrolidine-2,1-diyl))bis(2-oxo-1-phenylethane-2,1-diyl))dicarbamate] |  |  | 10 to 100 | 0.1 to 1 | 0.00185
8 | CCCCOc1ccc(Cn2c3cc(NC(=O)[C@@H]4CCCN4C(=O)[C@H](NC(=O)OC)c4ccccc4)ccc3c3ccc(NC(=O)[C@@H]4CCCN4C(=O)[C@H](NC(=O)OC)c4ccccc4)cc32)cc1 [Example 36, dimethyl ((1R,1′R)-((2S,2′S)-(((9-(4-butoxybenzyl)-9H-carbazole-2,7-diyl)bis(azanediyl))bis(carbonyl))bis(pyrrolidine-2,1-diyl))bis(2-oxo-1-phenylethane-2,1-diyl))dicarbamate] | 100 to 1000 | 0.0126 |  | 0.1 to 1 | 0.00326
9 | COCCOc1cccc(Cn2c3cc(NC(=O)[C@@H]4CCCN4C(=O)[C@H](NC(=O)OC)c4ccccc4)ccc3c3ccc(NC(=O)[C@@H]4CCCN4C(=O)[C@H](NC(=O)OC)c4ccccc4)cc32)c1 [Example 41, dimethyl ((1R,1′R)-((2S,2′S)-(((9-(3-(2-methoxyethoxy)benzyl)-9H-carbazole-2,7-diyl)bis(azanediyl))bis(carbonyl))bis(pyrrolidine-2,1-diyl))bis(2-oxo-1-phenylethane-2,1-diyl))dicarbamate] | > 1000 | 0.0419 |  | 0.1 to 1 | 0.00965
10 | CCCC(c1ccccc1)n1c2cc(NC(=O)[C@@H]3CCCN3C(=O)[C@H](NC(=O)OC)c3ccccc3)ccc2c2ccc(NC(=O)[C@@H]3CCCN3C(=O)[C@H](NC(=O)OC)c3ccccc3)cc21 (stereo partly drawn) [Example 28, dimethyl ((1R,1′R)-((2S,2′S)-(((9-(1-phenylbutyl)-9H-carbazole-2,7-diyl)bis(azanediyl))bis(carbonyl))bis(pyrrolidine-2,1-diyl))bis(2-oxo-1-phenylethane-2,1-diyl))dicarbamate] |  |  | 1 to 10 | < 0.1 | 0.00452
11 | CCCCCOc1cccc(Cn2c3cc(NC(=O)[C@@H]4CCCN4C(=O)[C@H](NC(=O)OC)c4ccccc4)ccc3c3ccc(NC(=O)[C@@H]4CCCN4C(=O)[C@H](NC(=O)OC)c4ccccc4)cc32)c1 [Example 30, dimethyl ((1R,1′R)-((2S,2′S)-(((9-(3-(pentyloxy)benzyl)-9H-carbazole-2,7-diyl)bis(azanediyl))bis(carbonyl))bis(pyrrolidine-2,1-diyl))bis(2-oxo-1-phenylethane-2,1-diyl))dicarbamate] |  | 0.071 | ~1 |  | 0.01 to 0.1
12 | COC(=O)N[C@@H](C(=O)N1CCC[C@H]1C(=O)Nc1ccc2c3ccc(NC(=O)[C@@H]4CCCN4C(=O)[C@H](NC(=O)OC)c4ccccc4)cc3n(Cc3cccc(C(F)(F)F)c3)c2c1)c1ccccc1 [Example 44, dimethyl ((1R,1′R)-((2S,2′S)-(((9-(3-(trifluoromethyl)benzyl)-9H-carbazole-2,7-diyl)bis(azanediyl))bis(carbonyl))bis(pyrrolidine-2,1-diyl))bis(2-oxo-1-phenylethane-2,1-diyl))dicarbamate] |  | 0.01 to 0.1 | > 10 |  | ~0.01
